Measured values from patent publication US11445724B2, “Insecticidal compounds” (SYNGENTA PARTICIPATIONS AG, priority 2013, dated 2022).

Columns and labels:
Type in all cases: in vivo
[1] = tested on: Plutella xylostella (Diamond back moth); test: Plutella xylostella (Diamond back moth) larval mortality, artificial diet in 24-well MTP; settings: 144 h, application rate 200 ppm (concentration in well 18 ppm), L2 larvae, larval mortality after 6 days
[2] = tested on: Diabrotica balteata (Corn root worm); test: Diabrotica balteata (Corn root worm) larval mortality, artificial diet in 24-well MTP; settings: 120 h, application rate 200 ppm (concentration in well 18 ppm), L2 larvae, larval mortality after 5 days
[3] = tested on: Myzus persicae (Green peach aphid); test: Myzus persicae (Green peach aphid) mortality, sprayed sunflower leaf discs; settings: foliar, 144 h, 200 ppm spray on sunflower leaf discs, mixed ages, mortality 6 DAT
[4] = tested on: Thrips tabaci (Onion thrips); test: Thrips tabaci (Onion thrips) mortality, sprayed sunflower leaf discs; settings: foliar, 168 h, 200 ppm spray on sunflower leaf discs, mixed ages, mortality after 7 days
[5] = tested on: Myzus persicae (Green peach aphid); test: Myzus persicae (Green peach aphid) mortality, test compounds mixed with Sucrose solution under Parafilm; settings: 120 h, 12.5 ppm in Sucrose solution, infested pea seedlings on Parafilm, mortality 5 days after infestation
[6] = tested on: Tetranychus urticae (Two-spotted spider mite); test: Tetranychus urticae (Two-spotted spider mite) mortality, sprayed bean leaf discs; settings: foliar, 192 h, 200 ppm spray on bean leaf discs, mixed ages, egg, larval and adult mortality after 8 days
[7] = tested on: Spodoptera littoralis (Egyptian cotton leafworm); test: Spodoptera littoralis (Egyptian cotton leafworm) mortality, sprayed cotton leaf discs; settings: foliar, 72 h, 200 ppm spray on cotton leaf discs, L1 larvae, mortality 3 DAT

O=C(Nc1cccc(C(=O)Nc2c(Br)cc(C(F)(C(F)(F)F)C(F)(F)F)cc2OC(F)F)c1F)c1ccncc1 [Compound 1]
≥ 80%: pest or weed control at 200 ppm [1] | pest or weed control at 200 ppm [2] | pest or weed control at 200 ppm [3] | pest or weed control at 200 ppm [4] | pest or weed control at 12.5 ppm [5] | pest or weed control at 200 ppm [6] | pest or weed control at 200 ppm [7]

CCN(C(=O)c1ccncc1)c1cccc(C(=O)Nc2c(Br)cc(C(F)(C(F)(F)F)C(F)(F)F)cc2OC(F)F)c1F [Compound 2, N-[3-[[2-bromo-6-(difluoromethoxy)-4-[1,2,2,2-tetrafluoro-1-(trifluoromethyl)ethyl]phenyl]carbamoyl]-2-fluoro-phenyl]-N-ethyl-pyridine-4-carboxamide]
≥ 80%: pest or weed control at 200 ppm [1] | pest or weed control at 200 ppm [2] | pest or weed control at 200 ppm [3] | pest or weed control at 200 ppm [4] | pest or weed control at 12.5 ppm [5] | pest or weed control at 200 ppm [6] | pest or weed control at 200 ppm [7]

COc1c(NC(=O)c2ccncc2)cccc1C(=O)Nc1c(Br)cc(C(F)(C(F)(F)F)C(F)(F)F)cc1OC(F)F [Compound 3]
≥ 80%: pest or weed control at 200 ppm [1] | pest or weed control at 200 ppm [2] | pest or weed control at 200 ppm [3] | pest or weed control at 200 ppm [4] | pest or weed control at 12.5 ppm [5] | pest or weed control at 200 ppm [6] | pest or weed control at 200 ppm [7]

COc1c(NC(=O)c2ccccc2C)cccc1C(=O)Nc1c(Br)cc(C(F)(C(F)(F)F)C(F)(F)F)cc1OC(F)F [Compound 35]
≥ 80%: pest or weed control at 200 ppm [1] | pest or weed control at 200 ppm [2] | pest or weed control at 200 ppm [3] | pest or weed control at 200 ppm [4] | pest or weed control at 200 ppm [6] | pest or weed control at 200 ppm [7]

COc1c(NC(=O)c2ccccc2Cl)cccc1C(=O)Nc1c(Br)cc(C(F)(C(F)(F)F)C(F)(F)F)cc1OC(F)F [Compound 37]
≥ 80%: pest or weed control at 200 ppm [1] | pest or weed control at 200 ppm [2] | pest or weed control at 200 ppm [3] | pest or weed control at 200 ppm [4] | pest or weed control at 200 ppm [6] | pest or weed control at 200 ppm [7]

COc1c(NC(=O)c2ccc(F)cc2C)cccc1C(=O)Nc1c(Br)cc(C(F)(C(F)(F)F)C(F)(F)F)cc1OC(F)F [Compound 43]
≥ 80%: pest or weed control at 200 ppm [1] | pest or weed control at 200 ppm [2] | pest or weed control at 200 ppm [3] | pest or weed control at 200 ppm [4] | pest or weed control at 200 ppm [6] | pest or weed control at 200 ppm [7]

Cc1ccccc1C(=O)Nc1cccc(C(=O)Nc2c(Cl)cc(C(F)(C(F)(F)F)C(F)(F)F)cc2OC(F)F)c1F [Compound 46]
≥ 80%: pest or weed control at 200 ppm [1] | pest or weed control at 200 ppm [2] | pest or weed control at 200 ppm [4] | pest or weed control at 200 ppm [6] | pest or weed control at 200 ppm [7]

O=C(Nc1cccc(C(=O)Nc2c(Cl)cc(C(F)(C(F)(F)F)C(F)(F)F)cc2OC(F)F)c1F)c1ccccc1Cl [Compound 48]
≥ 80%: pest or weed control at 200 ppm [1] | pest or weed control at 200 ppm [2] | pest or weed control at 200 ppm [3] | pest or weed control at 200 ppm [4] | pest or weed control at 200 ppm [6] | pest or weed control at 200 ppm [7]

O=C(Nc1cccc(C(=O)Nc2c(Cl)cc(C(F)(C(F)(F)F)C(F)(F)F)cc2OC(F)F)c1F)c1ccc(F)c(C(F)(F)F)c1 [Compound 62]
≥ 80%: pest or weed control at 200 ppm [1] | pest or weed control at 200 ppm [2] | pest or weed control at 12.5 ppm [5] | pest or weed control at 200 ppm [6] | pest or weed control at 200 ppm [7]

COc1c(NC(=O)c2ccc(F)cc2F)cccc1C(=O)Nc1c(Br)cc(C(F)(C(F)(F)F)C(F)(F)F)cc1OC(F)F [Compound 71]
≥ 80%: pest or weed control at 200 ppm [1] | pest or weed control at 200 ppm [2] | pest or weed control at 200 ppm [3] | pest or weed control at 200 ppm [4] | pest or weed control at 200 ppm [6] | pest or weed control at 200 ppm [7]

O=C(Nc1cccc(C(=O)Nc2c(Cl)cc(C(F)(C(F)(F)F)C(F)(F)F)cc2OC(F)F)c1F)c1ccc(F)cc1Cl [Compound 74]
≥ 80%: pest or weed control at 200 ppm [1] | pest or weed control at 200 ppm [2] | pest or weed control at 200 ppm [4] | pest or weed control at 12.5 ppm [5] | pest or weed control at 200 ppm [6] | pest or weed control at 200 ppm [7]

COc1c(NC(=O)c2ccccc2C)cccc1C(=O)Nc1c(Cl)cc(C(F)(C(F)(F)F)C(F)(F)F)cc1OC(F)F [Compound 77]
≥ 80%: pest or weed control at 200 ppm [1] | pest or weed control at 200 ppm [2] | pest or weed control at 200 ppm [4] | pest or weed control at 200 ppm [6] | pest or weed control at 200 ppm [7]

COc1c(NC(=O)c2ccccc2Cl)cccc1C(=O)Nc1c(Cl)cc(C(F)(C(F)(F)F)C(F)(F)F)cc1OC(F)F [Compound 79]
≥ 80%: pest or weed control at 200 ppm [1] | pest or weed control at 200 ppm [2] | pest or weed control at 200 ppm [3] | pest or weed control at 200 ppm [4] | pest or weed control at 200 ppm [6] | pest or weed control at 200 ppm [7]

COc1c(NC(=O)c2ccc(OC(F)(F)F)cc2)cccc1C(=O)Nc1c(Cl)cc(C(F)(C(F)(F)F)C(F)(F)F)cc1OC(F)F [Compound 87]
≥ 80%: pest or weed control at 200 ppm [1] | pest or weed control at 200 ppm [2] | pest or weed control at 200 ppm [4] | pest or weed control at 200 ppm [6] | pest or weed control at 200 ppm [7]

COc1c(NC(=O)c2ccccc2)cccc1C(=O)Nc1c(Cl)cc(C(F)(C(F)(F)F)C(F)(F)F)cc1OC(F)F [Compound 92]
≥ 80%: pest or weed control at 200 ppm [1] | pest or weed control at 200 ppm [2] | pest or weed control at 200 ppm [3] | pest or weed control at 200 ppm [4] | pest or weed control at 200 ppm [6] | pest or weed control at 200 ppm [7]

COc1c(NC(=O)c2ccccc2C(F)(F)F)cccc1C(=O)Nc1c(Cl)cc(C(F)(C(F)(F)F)C(F)(F)F)cc1OC(F)F [Compound 94]
≥ 80%: pest or weed control at 200 ppm [1] | pest or weed control at 200 ppm [2] | pest or weed control at 200 ppm [3] | pest or weed control at 200 ppm [4] | pest or weed control at 200 ppm [6] | pest or weed control at 200 ppm [7]

COc1c(NC(=O)c2ccc(F)cc2Cl)cccc1C(=O)Nc1c(Cl)cc(C(F)(C(F)(F)F)C(F)(F)F)cc1OC(F)F [Compound 95]
≥ 80%: pest or weed control at 200 ppm [1] | pest or weed control at 200 ppm [2] | pest or weed control at 200 ppm [3] | pest or weed control at 200 ppm [4] | pest or weed control at 200 ppm [6] | pest or weed control at 200 ppm [7]

COc1c(NC(=O)c2ccc(F)cc2F)cccc1C(=O)Nc1c(Cl)cc(C(F)(C(F)(F)F)C(F)(F)F)cc1OC(F)F [Compound 97]
≥ 80%: pest or weed control at 200 ppm [1] | pest or weed control at 200 ppm [3] | pest or weed control at 200 ppm [4] | pest or weed control at 200 ppm [6] | pest or weed control at 200 ppm [7]

CCN(C(=O)c1ccccc1Cl)c1cccc(C(=O)Nc2c(Cl)cc(C(F)(C(F)(F)F)C(F)(F)F)cc2OC(F)F)c1F [Compound 112]
≥ 80%: pest or weed control at 200 ppm [1] | pest or weed control at 200 ppm [2] | pest or weed control at 200 ppm [3] | pest or weed control at 200 ppm [4] | pest or weed control at 200 ppm [6] | pest or weed control at 200 ppm [7]

CCN(C(=O)c1ccccc1F)c1cccc(C(=O)Nc2c(Br)cc(C(F)(C(F)(F)F)C(F)(F)F)cc2OC(F)F)c1OC [Compound 129]
≥ 80%: pest or weed control at 200 ppm [1] | pest or weed control at 200 ppm [2] | pest or weed control at 200 ppm [4] | pest or weed control at 200 ppm [6] | pest or weed control at 200 ppm [7]

CCN(C(=O)c1ccc(F)cc1C)c1cccc(C(=O)Nc2c(Br)cc(C(F)(C(F)(F)F)C(F)(F)F)cc2OC(F)F)c1OC [Compound 133]
≥ 80%: pest or weed control at 200 ppm [1] | pest or weed control at 200 ppm [2] | pest or weed control at 200 ppm [4] | pest or weed control at 200 ppm [6] | pest or weed control at 200 ppm [7]

CCN(C(=O)c1ccccc1)c1cccc(C(=O)Nc2c(Br)cc(C(F)(C(F)(F)F)C(F)(F)F)cc2OC(F)F)c1OC [Compound 138]
≥ 80%: pest or weed control at 200 ppm [1] | pest or weed control at 200 ppm [2] | pest or weed control at 200 ppm [3] | pest or weed control at 200 ppm [4] | pest or weed control at 12.5 ppm [5] | pest or weed control at 200 ppm [7]

CCN(C(=O)c1ccc([N+](=O)[O-])cc1Cl)c1cccc(C(=O)Nc2c(Cl)cc(C(F)(C(F)(F)F)C(F)(F)F)cc2OC(F)F)c1OC [Compound 152]
≥ 80%: pest or weed control at 200 ppm [1] | pest or weed control at 200 ppm [2] | pest or weed control at 200 ppm [4] | pest or weed control at 12.5 ppm [5] | pest or weed control at 200 ppm [6] | pest or weed control at 200 ppm [7]

CCN(C(=O)c1ccccc1OC)c1cccc(C(=O)Nc2c(Cl)cc(C(F)(C(F)(F)F)C(F)(F)F)cc2OC(F)F)c1OC [Compound 154]
≥ 80%: pest or weed control at 200 ppm [1] | pest or weed control at 200 ppm [2] | pest or weed control at 200 ppm [4] | pest or weed control at 200 ppm [6] | pest or weed control at 200 ppm [7]

CCN(C(=O)c1ccccc1)c1cccc(C(=O)Nc2c(Cl)cc(C(F)(C(F)(F)F)C(F)(F)F)cc2OC(F)F)c1OC [Compound 155]
≥ 80%: pest or weed control at 200 ppm [1] | pest or weed control at 200 ppm [2] | pest or weed control at 200 ppm [3] | pest or weed control at 200 ppm [4] | pest or weed control at 12.5 ppm [5] | pest or weed control at 200 ppm [7]

CCN(C(=O)c1cccc(F)c1F)c1cccc(C(=O)Nc2c(Cl)cc(C(F)(C(F)(F)F)C(F)(F)F)cc2OC(F)F)c1OC [Compound 159]
≥ 80%: pest or weed control at 200 ppm [1] | pest or weed control at 200 ppm [2] | pest or weed control at 200 ppm [3] | pest or weed control at 200 ppm [4] | pest or weed control at 12.5 ppm [5] | pest or weed control at 200 ppm [7]
